Measurements taken from PubChem BioAssay AID192 (DTP/NCI, 2004).
Several values for one entry are separate records, joined by “and”; a condition that tells them apart may be missing. Equal values may be shown once. Toxic doses and inconclusive results are not listed. How the source made its calls: active means survival T/C of 150% or more; inactive means T/C below 125% in these data. Numbered stars: 1 amine (or outer) side, 2 acyl side, 3 side chain; on linkers, the order of the positions; unused ones are H or OH. Peptide text beside a SMILES is read from it. ξ: configuration not given here. ξγGlu = O=C(O)C(CCC(=O)[*:2])N[*:1]

System: BDF1 mice, B16 melanoma ip, median survival T/C
Experiment: NCI In Vivo Anticancer Drug Screen. Data for tumor model B16 Melanoma (intraperitoneal) in B6D2F1 (BDF1) mice
Settings: endpoint: median survival time, higher = longer survival
Method in brief: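 Survival or tumor size is measured after treatment of tumor-bearing mice and normalised to the vehicle-treated control group.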

[1] = dose: 0.5 mg/kg/injection, schedule: Q01DX009 (ip), vehicle: Klucel (hydroxypropylcellulose) (HPC)
[2] = dose: 1.0 mg/kg/injection, schedule: Q01DX009 (ip), vehicle: Klucel (hydroxypropylcellulose) (HPC)
[3] = dose: 100.0 mg/kg/injection, schedule: Q01DX009 (ip), vehicle: Klucel (hydroxypropylcellulose) (HPC)
[4] = dose: 200.0 mg/kg/injection, schedule: Q01DX009 (ip), vehicle: Klucel (hydroxypropylcellulose) (HPC)
[5] = dose: 400.0 mg/kg/injection, schedule: Q01DX009 (ip), vehicle: Klucel (hydroxypropylcellulose) (HPC)
[6] = dose: 12.5 mg/kg/injection, schedule: Q01DX009 (ip), vehicle: Klucel (hydroxypropylcellulose) (HPC)
[7] = dose: 25.0 mg/kg/injection, schedule: Q01DX009 (ip), vehicle: Klucel (hydroxypropylcellulose) (HPC)
[8] = dose: 50.0 mg/kg/injection, schedule: Q01DX009 (ip), vehicle: Klucel (hydroxypropylcellulose) (HPC)
[9] = dose: 25.0 mg/kg/injection, schedule: Q01DX009 (ip), vehicle: saline with Tween-80
[10] = dose: 50.0 mg/kg/injection, schedule: Q01DX009 (ip), vehicle: saline with Tween-80
[11] = dose: 100.0 mg/kg/injection, schedule: Q01DX009 (ip), vehicle: saline with Tween-80
[12] = dose: 2.0 mg/kg/injection, schedule: Q01DX009 (ip), vehicle: saline
[13] = dose: 4.0 mg/kg/injection, schedule: Q01DX009 (ip), vehicle: saline
[14] = dose: 8.0 mg/kg/injection, schedule: Q01DX009 (ip), vehicle: saline
[15] = dose: 25.0 mg/kg/injection, schedule: Q04DX003 (ip), vehicle: saline with Tween-80
[16] = dose: 50.0 mg/kg/injection, schedule: Q04DX003 (ip), vehicle: saline with Tween-80
[17] = dose: 100.0 mg/kg/injection, schedule: Q04DX003 (ip), vehicle: saline with Tween-80
[18] = dose: 100.0 mg/kg/injection, schedule: Q01DX009 (ip), vehicle: saline
[19] = dose: 200.0 mg/kg/injection, schedule: Q01DX009 (ip), vehicle: saline
[20] = dose: 400.0 mg/kg/injection, schedule: Q01DX009 (ip), vehicle: saline
[21] = dose: 50.0 mg/kg/injection, schedule: Q01DX009 (ip), vehicle: saline
[22] = dose: 0.25 mg/kg/injection, schedule: Q01DX009 (ip), vehicle: saline
[23] = dose: 0.5 mg/kg/injection, schedule: Q01DX009 (ip), vehicle: saline
[24] = dose: 12.5 mg/kg/injection, schedule: Q01DX009 (ip), vehicle: saline
[25] = dose: 25.0 mg/kg/injection, schedule: Q01DX009 (ip), vehicle: saline

Measured: T/C

C[C@@]12C(=O)OC(=O)[C@]1(C)[C@H]1CC[C@@H]2O1
inactive: dose: 0.06 mg/kg/injection, schedule: Q01DX009 (ip), vehicle: Klucel (hydroxypropylcellulose) (HPC) 89 % of control | dose: 0.12 mg/kg/injection, schedule: Q01DX009 (ip), vehicle: Klucel (hydroxypropylcellulose) (HPC) 93 % of control | dose: 0.13 mg/kg/injection, schedule: Q01DX009 (ip), vehicle: acetone 103 % of control | dose: 0.25 mg/kg/injection, schedule: Q01DX009 (ip), vehicle: Klucel (hydroxypropylcellulose) (HPC) 90 % of control | dose: 0.25 mg/kg/injection, schedule: Q01DX009 (ip), vehicle: acetone 101 % of control | [1] 102 % of control | dose: 0.5 mg/kg/injection, schedule: Q01DX009 (ip), vehicle: acetone 110 % of control | [2] 96 % of control

CCCCCCCC(=O)CCCC
inactive: [3] 106 % of control | [4] 106 % of control | [5] 94 % of control

Cc1cc(=O)c2c(o1)-c1c(cc(O)c(O)c1C(=O)O)OC2
inactive: [6] 101 % of control | [7] 105 % of control | [8] 105 % of control | [3] 102 % of control | [4] 106 % of control

COC1C(CO)OC(n2cnc3c(=S)nc(N)[nH]c32)C1O (stereo unspecified)
inactive: [6] 112 % of control | [7] 103 % of control | [8] 108 % of control

CC(=O)C(C)(NCc1ccccc1)c1ccccc1 (stereo unspecified)
inactive: [8] 86 % of control | [3] 89 % of control

BrCC(Br)CBr
inactive: [9] 92 % of control | [10] 90 % of control | [11] 90 % of control

CCOC(C)C(/C=N/NC(N)=S)=NNC(N)=S (stereo unspecified)
inactive: [10] 90 % of control

COc1cc([C@@H]2c3cc4c(cc3[C@H](O)[C@H]3COC(=O)[C@H]23)OCO4)cc(OC)c1OC
inactive: [12] 102 % of control | [13] 109 % of control | [14] 104 % of control

CN1CCN(c2ccc([N+](=O)[O-])c3no[n+]([O-])c23)CC1
inactive: dose: 5.0 mg/kg/injection, schedule: Q01DX009 (ip), vehicle: saline with Tween-80 111 % of control | dose: 5.0 mg/kg/injection, schedule: Q01DX011 (ip), vehicle: saline with Tween-80 110 % of control | dose: 10.0 mg/kg/injection, schedule: Q01DX009 (ip), vehicle: saline with Tween-80 107 % of control | dose: 10.0 mg/kg/injection, schedule: Q01DX011 (ip), vehicle: saline with Tween-80 109 % of control

O=C(O)C1CCCCC1C(=O)Nc1ccc(Cl)cc1 (stereo unspecified)
inactive: [8] 114 % of control | [3] 105 % of control | [4] 107 % of control

S=c1sc2ccccc2n1CN(c1ccccc1)c1ccc2ccccc2c1
inactive: [15] 109 % of control | [16] 106 % of control | [17] 93 % of control and 103 % of control

NC(=O)Nc1ccccc1
inactive: [18] 97 % of control | [19] 100 % of control | [20] 104 % of control

NC(=O)c1ccc(-c2c3ccccc3cc3c2ccc2ccccc23)cc1
inactive: [10] 101 % of control | [11] 96 % of control

Cc1cnc2c(N)[nH]nc2n1
inactive: [8] 97 % of control | [3] 106 % of control | [4] 107 % of control

CC(C)(C)OC(=O)NC(CCC(N)=O)C(=O)O (stereo unspecified)
inactive: [21] 96 % of control | [18] 97 % of control | [19] 96 % of control

NC(CCC(=O)NCC(=O)NCC(=O)O)C(=O)O (stereo not drawn) (ξγGlu-Gly-Gly-OH)
inactive: [21] 106 % of control | [18] 97 % of control | [19] 102 % of control | [20] 91 % of control

CN(C)CCCN1c2ccccc2Sc2ccc(C(F)(F)F)cc21
inactive: dose: 0.06 mg/kg/injection, schedule: Q01DX009 (ip), vehicle: saline 89 % of control | [22] 97 % of control | [23] 109 % of control | [12] 104 % of control | [14] 109 % of control

CCCCCCCCCCCCCCCC(=O)N(CCCN(C)C)CCCN(CCCN(C)C)C(=O)CCCCCCCCCCCCCCC
inactive: dose: 1.56 mg/kg/injection, schedule: Q01DX009 (ip), vehicle: water 106 % of control | dose: 3.13 mg/kg/injection, schedule: Q01DX009 (ip), vehicle: water 101 % of control | dose: 6.25 mg/kg/injection, schedule: Q01DX009 (ip), vehicle: water 92 % of control | dose: 12.5 mg/kg/injection, schedule: Q01DX009 (ip), vehicle: water 87 % of control

Oc1ccccc1OCc1ccccc1
inactive: dose: 100.0 mg/kg/injection, schedule: Q04DX003 (ip), vehicle: Klucel (hydroxypropylcellulose) (HPC) 107 % of control | dose: 200.0 mg/kg/injection, schedule: Q04DX003 (ip), vehicle: Klucel (hydroxypropylcellulose) (HPC) 105 % of control | dose: 400.0 mg/kg/injection, schedule: Q04DX003 (ip), vehicle: Klucel (hydroxypropylcellulose) (HPC) 105 % of control

CC(C)C[C@H](NC(=O)[C@@H](O)[C@H](N)Cc1ccc(O)cc1)C(=O)O
inactive: dose: 0.05 mg/kg/injection, schedule: Q01DX009 (oral), vehicle: saline 97 % of control | dose: 0.5 mg/kg/injection, schedule: Q01DX009 (oral), vehicle: saline 97 % of control | dose: 5.0 mg/kg/injection, schedule: Q01DX009 (oral), vehicle: saline 101 % of control

Cc1ccc(C(=O)CCl)c(C)c1
inactive: dose: 12.5 mg/kg/injection, schedule: Q01DX009 (ip), vehicle: saline with Tween-80 90 % of control | [9] 92 % of control | [10] 95 % of control

COC(=O)C1C2CC3c4[nH]c5cc(OC)ccc5c4CCN3CC2CC(OC)C1OC (stereo unspecified)
inactive: [22] 102 % of control | [23] 94 % of control | dose: 1.0 mg/kg/injection, schedule: Q01DX009 (ip), vehicle: saline 105 % of control | dose: 1.56 mg/kg/injection, schedule: Q01DX009 (ip), vehicle: saline 100 % of control | dose: 3.12 mg/kg/injection, schedule: Q01DX009 (ip), vehicle: saline 98 % of control | [13] 94 % of control and 100 % of control | dose: 6.25 mg/kg/injection, schedule: Q01DX009 (ip), vehicle: saline 103 % of control | [14] 104 % of control | [24] 106 % of control | dose: 16.0 mg/kg/injection, schedule: Q01DX009 (ip), vehicle: saline 99 % of control | [25] 101 % of control | dose: 32.0 mg/kg/injection, schedule: Q01DX009 (ip), vehicle: saline 94 % of control

COc1cc(OC)c2c(O)c3c(c(-c4ccc5cc6c(c(O)c5c4O)C(=O)CC(C)(O)C6)c2c1)CC(C)OC3C (stereo unspecified)
inactive: [1] 94 % of control | [2] 102 % of control | dose: 2.0 mg/kg/injection, schedule: Q01DX009 (ip), vehicle: Klucel (hydroxypropylcellulose) (HPC) 111 % of control

Cc1ccc(NS(=O)(=O)c2ccccc2)cc1Cl
inactive: [4] 90 % of control | [5] 88 % of control

CN(C)C1=NC(=O)C(c2ccccc2)O1 (stereo unspecified)
inactive: [24] 117 % of control | [25] 105 % of control | [21] 111 % of control | [18] 114 % of control

CCOC(=O)C(C)Oc1ccccc1[N+](=O)[O-] (stereo unspecified)
inactive: [3] 103 % of control | [4] 96 % of control | [5] 103 % of control

O=C1CCCNc2ccccc21
inactive: [15] 100 % of control | [16] 102 % of control | dose: 75.0 mg/kg/injection, schedule: Q04DX003 (ip), vehicle: saline with Tween-80 114 % of control | [17] 101 % of control | dose: 200.0 mg/kg/injection, schedule: Q04DX003 (ip), vehicle: saline with Tween-80 103 % of control | dose: 400.0 mg/kg/injection, schedule: Q04DX003 (ip), vehicle: saline with Tween-80 90 % of control
